Test results as given in US20200254026A1, “AGENT FOR PROMOTING MIGRATION OF PLURIPOTENT STEM CELLS” (NIPPON ZOKI PHARMACEUTICAL CO., LTD., priority 2015, published 2020).

System: Muse cells (SSEA-3-positive cells)
Experiment: Cell mobility analysis (EZ-TAXIScan), chemotactic ability of Muse cells
Type: cell-based
Conditions: SSEA-3-positive cells from human bone marrow mesenchymal stem cells; 2 μM S1P as positive control; photographed every 10 minutes
Experimental: Mesenchymal stem cells derived from human bone marrow in a concentration of 1×10^7 cells/mL were prepared using an FACS buffer containing Dulbecco PBS, 0.5% bovine serum albumin, and 2 mM EDTA (ethylenediaminetetraacetic acid). Thereto, an anti-SSEA-3 antibody (diluted 400 times) was added as a primary antibody. Reaction was allowed to proceed on ice for 1 hour while being suspended at appropriate times, followed by centrifugation for supernatant removal. Then, the addition and removal of an FACS buffer were repeated three times for rinsing. Thereto, an FITC-labeled anti-rat-IgM antibody (diluted 100 times) was added as a secondary antibody. Subsequently, in the same manner as above, reaction was allowed to proceed on ice for 1 hour and then addition and removal of an FACS buffer were repeated three times for rinsing. SSEA-3-positive cells were separated by FACS the day before measurement, followed by overnight culturing under conditions of 37° C. and 5% CO2. […] The resulting cell suspension was injected into each well of an EZ-[…] (registered trademark; the same applies hereinafter) holder chamber (GE Healthcare), and the cells were aligned properly in front of a terrace by a water-level difference method. […] The EZ-[…] holder chamber was placed in an incubator under conditions of 37° C. and 5% CO2. […]

CCCCCCCCCCCCC/C=C/[C@@H](O)[C@@H](N)COP(=O)(O)O [S1P, sphingosine-1-phosphate]
movement of Muse cells (chemotactic ability with time): same movement of Muse cells was observed
